# According to patent publication US20120077779A1, “Inhibitors of Fibroblast Activation Protein Alpha” (Trustees of Tufts College, priority 2005, published 2012):
# Molecular target: T1, FAP (Homo sapiens, UniProt Q12884)
# T1 sequence (Q12884 1-760): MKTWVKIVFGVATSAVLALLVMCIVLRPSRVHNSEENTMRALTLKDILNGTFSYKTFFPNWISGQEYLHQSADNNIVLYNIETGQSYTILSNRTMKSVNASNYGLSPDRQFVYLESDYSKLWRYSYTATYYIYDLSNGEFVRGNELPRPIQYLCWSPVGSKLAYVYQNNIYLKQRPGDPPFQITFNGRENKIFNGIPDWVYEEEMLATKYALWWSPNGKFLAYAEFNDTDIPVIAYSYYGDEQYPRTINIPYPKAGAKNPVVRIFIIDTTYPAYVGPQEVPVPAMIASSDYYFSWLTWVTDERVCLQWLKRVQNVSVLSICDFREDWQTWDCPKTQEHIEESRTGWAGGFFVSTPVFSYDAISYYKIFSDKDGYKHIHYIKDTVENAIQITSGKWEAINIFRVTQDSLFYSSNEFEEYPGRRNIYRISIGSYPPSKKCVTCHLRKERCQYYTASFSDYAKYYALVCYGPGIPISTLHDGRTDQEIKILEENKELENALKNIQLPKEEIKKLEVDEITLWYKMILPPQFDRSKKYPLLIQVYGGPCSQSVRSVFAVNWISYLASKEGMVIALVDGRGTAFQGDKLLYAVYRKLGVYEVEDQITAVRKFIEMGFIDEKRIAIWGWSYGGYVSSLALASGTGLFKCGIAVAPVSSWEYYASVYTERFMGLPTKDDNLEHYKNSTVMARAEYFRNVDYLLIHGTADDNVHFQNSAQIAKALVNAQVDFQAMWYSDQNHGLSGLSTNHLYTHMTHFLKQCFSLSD
# Test: Enzymatic activity of purified FAP, chromogenic substrate H-Ala-Pro-pNA
# Format: biochemical
# Settings: pH 7.4, 25° C., 10 min pre-incubation with enzyme
# Method: The enzymatic activity of purified FAP was measured at 25° C. on a Molecular Devices SPECTRAmax 340PC384 microtiter plate reader by monitoring the absorbance of H-Ala-Pro-pNA (Bachem) as the chromogenic substrate at 410 nm. […] Assays and their corresponding measurements were performed in duplicate. […] Inhibitor stock solutions (1 mM) were prepared in HCl solution (pH 2.0), and stored at −20° C. Stock solutions were diluted with 20 mM TRIS-HCl, KCl (20 mM) buffer at pH 7.4 immediately preceding the experiment according to the protocol.
row,SMILES,IC50 [µM]
1,N#C[C@@H]1CCCN1C(=O)CNC(=O)c1ccccc1 [Compound 30],2.2
2,CC(C)NCC(=O)N1CCCC1B(O)O (stereo not shown) [Compound 15],0.99

# Now from value to compound:
row,IC50 [µM],SMILES
1,8.2,C[C@H](NC(=O)CNC(=O)c1cccc2ccccc12)B(O)O [Compound 33]
2,9,CC[C@H](NC(=O)CNC(=O)c1cccc2ccccc12)B(O)O [Compound 34]
3,30,CC(C)[C@H](NC(=O)c1ccccc1)C(=O)N1CCC[C@H]1B(O)O [Compound 32]
4,14,O=C(NCC(=O)N1CCSC1)c1ccccc1 [Compound 31]

# Same assay, conditions: pH 7.4, 25° C., 10 min pre-incubation; result in words
row,SMILES,IC50 FAP (pH 7.4)
1,CNCC(=O)N1CCCC1B(O)O (stereo not shown) [Compound 12],no inhib.
2,CC[C@H](NC(=O)[C@@H](NC(C)=O)C(C)C)B(O)O [Compound 36],no inhib.
3,CC(=O)N[C@H](C(=O)N[C@@H](C)B(O)O)C(C)C [Compound 35],no inhib.

# Molecular target: DPP IV (Homo sapiens, UniProt P27487)
# Test: DPP IV inhibition (Table 1)
# Format: biochemical
# Settings: pH 8.0
# DPP IV, sequence (P27487 whole entry, species assumed): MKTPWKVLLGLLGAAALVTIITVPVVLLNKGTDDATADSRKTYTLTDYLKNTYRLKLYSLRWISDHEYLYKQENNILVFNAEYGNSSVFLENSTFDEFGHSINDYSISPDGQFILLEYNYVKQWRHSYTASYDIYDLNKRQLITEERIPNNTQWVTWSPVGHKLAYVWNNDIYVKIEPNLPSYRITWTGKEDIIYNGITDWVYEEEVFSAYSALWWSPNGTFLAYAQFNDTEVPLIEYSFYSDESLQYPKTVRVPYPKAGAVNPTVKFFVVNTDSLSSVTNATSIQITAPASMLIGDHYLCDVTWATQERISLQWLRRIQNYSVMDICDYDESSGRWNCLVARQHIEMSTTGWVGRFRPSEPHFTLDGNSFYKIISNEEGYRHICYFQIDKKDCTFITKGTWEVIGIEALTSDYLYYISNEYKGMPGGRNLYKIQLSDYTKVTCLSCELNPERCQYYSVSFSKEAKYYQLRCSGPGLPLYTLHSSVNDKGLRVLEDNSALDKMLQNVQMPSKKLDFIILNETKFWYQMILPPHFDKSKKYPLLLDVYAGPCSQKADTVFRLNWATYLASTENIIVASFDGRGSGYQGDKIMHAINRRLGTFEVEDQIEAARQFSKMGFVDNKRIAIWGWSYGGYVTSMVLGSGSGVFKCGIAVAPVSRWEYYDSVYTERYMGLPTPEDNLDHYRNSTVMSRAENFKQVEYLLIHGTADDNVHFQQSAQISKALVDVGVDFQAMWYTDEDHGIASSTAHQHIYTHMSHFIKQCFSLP
row,SMILES,IC50 [µM]
1,CNCC(=O)N1CCCC1B(O)O (stereo not shown) [Compound 12],560
2,NCC(=O)N1CCC[C@H]1B(O)O [Compound 6],6.9
3,CCNCC(=O)N1CCCC1B(O)O (stereo not shown) [Compound 13],46
4,CC(C)NCC(=O)N1CCCC1B(O)O (stereo not shown) [Compound 15],0.9
